Laboratory results taken from patent US20230085307A1, “PYRIDAZINONE COMPOUND AND HERBICIDE” (NISSAN CHEMICAL CORPORATION, priority 2019, published 2023).

Columns and labels:
Japanese bulrush = assay: Test Example 2: herbicidal activity, application during weed generation under submerged conditions (Table 17, symbol B); assay type: in vivo, Japanese bulrush (Schoenoplectus juncoides); details: AAH 320 g/ha; application during weed generation, submerged conditions
Summary of the method: (§1)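 Wagner pot, alluvial soil, 4 cm flood; mixed sowing of all species; greenhouse 25° C.–30° C. Emulsifiable formulation, water-diluted to predetermined dose, applied to paddy water at 1–2 leaf stage. Effect rated at 3 wk using the earlier test's scoring criteria.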

green foxtail [1] = assay: Test Example 5: herbicidal effect by foliage application, plastic box (Table 20, symbol G); assay type: in vivo, green foxtail (Setaria viridis); details: 320 g/ha
Summary of the method: (§2)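 Sow seeds spot-wise in sterilized diluvial soil; cover with ~1.5 cm soil. Grow 14 days in greenhouse, 25° C. to 30° C. Spray foliage with emulsion diluted to predetermined amount. Rate effect after 3 weeks.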

green foxtail [2] = assay: Test Example 4: herbicidal effect by soil treatment (Table 19, symbol G); assay type: in vivo, green foxtail (Setaria viridis); details: amount of applied herbicide 320 g/ha
Summary of the method: (§3)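 Applied as a water-diluted emulsion, the compound was sprayed onto soil covering newly sown seeds. Evaluation came three weeks after application, in a greenhouse held at 25° C. to 30° C.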

southern crabgrass [3] = assay: Test Example 4: herbicidal effect by soil treatment (Table 19, symbol F); assay type: in vivo, southern crabgrass (Digitaria ciliaris); details: amount of applied herbicide 320 g/ha
Summary of the method: as §3

velvetleaf [4] = assay: Test Example 4: herbicidal effect by soil treatment (Table 19, symbol M); assay type: in vivo, velvetleaf (Abutilon theophrasti); details: amount of applied herbicide 320 g/ha
Summary of the method: as §3

lambsquarters [5] = assay: Test Example 5: herbicidal effect by foliage application, plastic box (Table 20, symbol O); assay type: in vivo, lambsquarters (Chenopodium album); details: 320 g/ha
Summary of the method: as §2

barnyard grass [6] = assay: Test Example 5: herbicidal effect by foliage application, plastic box (Table 20, symbol H); assay type: in vivo, barnyard grass (Echinochloa crus-galli); details: 320 g/ha
Summary of the method: as §2

redroot pigweed [7] = assay: Test Example 5: herbicidal effect by foliage application, plastic box (Table 20, symbol N); assay type: in vivo, redroot pigweed (Amaranthus retroflexus); details: 320 g/ha
Summary of the method: as §2

southern crabgrass [8] = assay: Test Example 5: herbicidal effect by foliage application, plastic box (Table 20, symbol F); assay type: in vivo, southern crabgrass (Digitaria ciliaris); details: 320 g/ha
Summary of the method: as §2

velvetleaf [9] = assay: Test Example 5: herbicidal effect by foliage application, plastic box (Table 20, symbol M); assay type: in vivo, velvetleaf (Abutilon theophrasti); details: 320 g/ha
Summary of the method: as §2

barnyard grass [10] = assay: Test Example 3: herbicidal effect by foliage application, Wagner pot (Table 18, symbol H); assay type: in vivo, barnyard grass (Echinochloa crus-galli)
Summary of the method: (§4)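 Plants were sown in alluvial soil held under 0.1–0.5 cm standing water and grown 14 days in a greenhouse at 25–30 °C. An emulsifiable formulation, water-diluted to the set dose, was then sprayed onto the foliage, and effects were scored three weeks later using previously defined criteria.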

oval-leafed pondweed = assay: Test Example 2: herbicidal activity, application during weed generation under submerged conditions (Table 17, symbol C); assay type: in vivo, oval-leafed pondweed (Monochoria vaginalis); details: AAH 320 g/ha; application during weed generation, submerged conditions
Summary of the method: as §1

late watergrass = assay: Test Example 2: herbicidal activity, application during weed generation under submerged conditions (Table 17, symbol A); assay type: in vivo, late watergrass (Echinochloa oryzicola); details: AAH 320 g/ha; application during weed generation, submerged conditions
Protocol: [Test Example 2] Herbicidal Activity Test by Application during Weed Generation under Submerged Conditions After alluvial soil was placed into 1/10000 are of Wagner pot, water was poured and mixed to form a submerged condition having a water depth of 4 cm. Seeds of late watergrass, Japanese bulrush, and oval-leafed pondweed were sowed in a mixed manner in the aforementioned pot, and the pot was placed in a greenhouse at 25° C. to 30° C. for growth of the plants. When late watergrass, Japanese bulrush, and oval-leafed pondweed were grown to one leaf stage to two leaf stage, the emulsion agent of the compound of the present invention prepared according to Formulation Example 2 was diluted with water so as to achieve a predetermined herbicide amount, and the diluted emulsion agent was applied to the surface of the water. Three weeks after the herbicide application, the effect of the herbicide on each plant was evaluated according to the criteria of Test Example 1.

Chinese sprangletop = assay: Test Example 3: herbicidal effect by foliage application, Wagner pot (Table 18, symbol D); assay type: in vivo, chinese sprangletop (Leptochloa chinensis)
Summary of the method: as §4

rice flat sedge = assay: Test Example 3: herbicidal effect by foliage application, Wagner pot (Table 18, symbol E); assay type: in vivo, rice flat sedge (Cyperus iria)
Summary of the method: as §4

redroot pigweed [11] = assay: Test Example 4: herbicidal effect by soil treatment (Table 19, symbol N); assay type: in vivo, redroot pigweed (Amaranthus retroflexus); details: amount of applied herbicide 320 g/ha
Summary of the method: as §3

barnyard grass [12] = assay: Test Example 4: herbicidal effect by soil treatment (Table 19, symbol H); assay type: in vivo, barnyard grass (Echinochloa crus-galli); details: amount of applied herbicide 320 g/ha
Summary of the method: as §3

lambsquarters [13] = assay: Test Example 4: herbicidal effect by soil treatment (Table 19, symbol O); assay type: in vivo, lambsquarters (Chenopodium album); details: amount of applied herbicide 320 g/ha
Summary of the method: as §3

persian speedwell = assay: Test Example 5: herbicidal effect by foliage application, plastic box (Table 20, symbol R); assay type: in vivo, Persian speedwell (Veronica persica); details: 320 g/ha, foliage application after 14-day growth, evaluated three weeks after application
Summary of the method: as §2

blackgrass = assay: Test Example 5: herbicidal effect by foliage application, plastic box (Table 20, symbol J); assay type: in vivo, blackgrass (Alopecurus myosuroides); details: 320 g/ha, foliage application after 14-day growth, evaluated three weeks after application
Summary of the method: as §2

windgrass = assay: Test Example 5: herbicidal effect by foliage application, plastic box (Table 20, symbol L); assay type: in vivo, windgrass (Apera spica-venti); details: 320 g/ha, foliage application after 14-day growth, evaluated three weeks after application
Summary of the method: as §2

wild oat = assay: Test Example 5: herbicidal effect by foliage application, plastic box (Table 20, symbol I); assay type: in vivo, wild oat (Avena fatua); details: 320 g/ha, foliage application after 14-day growth, evaluated three weeks after application
Summary of the method: as §2

Italian ryegrass = assay: Test Example 5: herbicidal effect by foliage application, plastic box (Table 20, symbol K); assay type: in vivo, Italian ryegrass (Lolium multiflorum); details: 320 g/ha, foliage application after 14-day growth, evaluated three weeks after application
Summary of the method: as §2

chickweed = assay: Test Example 5: herbicidal effect by foliage application, plastic box (Table 20, symbol P); assay type: in vivo, common chickweed (Stellaria media); details: 320 g/ha, foliage application after 14-day growth, evaluated three weeks after application
Summary of the method: as §2

[14] = foliage application, three weeks after application
[15] = amount of applied herbicide 320 g/ha
[16] = foliage application after 14-day growth, evaluated three weeks after application

Cc1ccc2sc(-c3ccc(OC(F)F)cc3)c(-c3c(O)c(C)nn(C)c3=O)c2c1 [2-459]
herbicidal effect rating, B: Japanese bulrush (Japanese bulrush): 0 (Herbicidal rate of 5% or less (almost no effect)) | G: green foxtail, herbicidal effect grade (green foxtail [1]; [14]): 0 (Herbicidal rate of 5% or less (almost no effect)) | herbicidal effect, G: green foxtail (green foxtail [2]): 0 (Herbicidal rate of 5% or less (almost no effect)) | herbicidal effect, F: southern crabgrass (southern crabgrass [3]): 0 (Herbicidal rate of 5% or less (almost no effect)) | herbicidal effect, M: velvetleaf (velvetleaf [4]): 1 (Herbicidal rate of 5% or more and less than 20%) | O: lambsquarters, herbicidal effect grade (lambsquarters [5]; [14]): 4 (Herbicidal rate of 70% or more and less than 90%) | H: barnyard grass, herbicidal effect grade (barnyard grass [6]; [14]): 0 (Herbicidal rate of 5% or less (almost no effect)) | N: redroot pigweed, herbicidal effect grade (redroot pigweed [7]; [14]): 4 (Herbicidal rate of 70% or more and less than 90%) | F: southern crabgrass, herbicidal effect grade (southern crabgrass [8]; [14]): 0 (Herbicidal rate of 5% or less (almost no effect)) | M: velvetleaf, herbicidal effect grade (velvetleaf [9]; [14]): 4 (Herbicidal rate of 70% or more and less than 90%) | herbicidal effect on H: barnyard grass (barnyard grass [10]; [15]): 3 (Herbicidal rate of 40% or more and less than 70%) | herbicidal effect rating, C: oval-leafed pondweed (oval-leafed pondweed): 0 (Herbicidal rate of 5% or less (almost no effect)) | herbicidal effect rating, A: late watergrass (late watergrass): 3 (Herbicidal rate of 40% or more and less than 70%) | herbicidal effect on D: Chinese sprangletop (Chinese sprangletop; [15]): 0 (Herbicidal rate of 5% or less (almost no effect)) | herbicidal effect on E: rice flat sedge (rice flat sedge; [15]): 0 (Herbicidal rate of 5% or less (almost no effect)) | herbicidal effect, N: redroot pigweed (redroot pigweed [11]): 5 (Herbicidal rate of 90% or more (almost completely withered)) | herbicidal effect, H: barnyard grass (barnyard grass [12]): 0 (Herbicidal rate of 5% or less (almost no effect)) | herbicidal effect, O: lambsquarters (lambsquarters [13]): 4 (Herbicidal rate of 70% or more and less than 90%)

Cc1ccc(-c2sc3c(Cl)cccc3c2-c2c(O)c(C)nn(C)c2=O)cc1 [4-019]
herbicidal effect on R: persian speedwell (evaluation grade 0-5) (persian speedwell): 4 (Herbicidal rate of 70% or more and less than 90%) | herbicidal effect on J: blackgrass (evaluation grade 0-5) (blackgrass): 0 (Herbicidal rate of 5% or less (almost no effect)) | herbicidal effect rating, B: Japanese bulrush (Japanese bulrush): 0 (Herbicidal rate of 5% or less (almost no effect)) | herbicidal effect on G: green foxtail (evaluation grade 0-5) (green foxtail [1]; [16]): 1 (Herbicidal rate of 5% or more and less than 20%) | herbicidal effect on L: windgrass (evaluation grade 0-5) (windgrass): 1 (Herbicidal rate of 5% or more and less than 20%) | herbicidal effect on I: wild oat (evaluation grade 0-5) (wild oat): 3 (Herbicidal rate of 40% or more and less than 70%) | herbicidal effect on O: lambsquarters (evaluation grade 0-5) (lambsquarters [5]; [16]): 1 (Herbicidal rate of 5% or more and less than 20%) | herbicidal effect on H: barnyard grass (evaluation grade 0-5) (barnyard grass [6]; [16]): 0 (Herbicidal rate of 5% or less (almost no effect)) | herbicidal effect on N: redroot pigweed (evaluation grade 0-5) (redroot pigweed [7]; [16]): 5 (Herbicidal rate of 90% or more (almost completely withered)) | herbicidal effect on F: southern crabgrass (evaluation grade 0-5) (southern crabgrass [8]; [16]): 0 (Herbicidal rate of 5% or less (almost no effect)) | herbicidal effect on M: velvetleaf (evaluation grade 0-5) (velvetleaf [9]; [16]): 5 (Herbicidal rate of 90% or more (almost completely withered)) | herbicidal effect on K: Italian ryegrass (evaluation grade 0-5) (Italian ryegrass): 3 (Herbicidal rate of 40% or more and less than 70%) | herbicidal effect on barnyard grass (H) (barnyard grass [10]; 320 g/ha): 3 (Herbicidal rate of 40% or more and less than 70%) | herbicidal effect rating, C: oval-leafed pondweed (oval-leafed pondweed): 0 (Herbicidal rate of 5% or less (almost no effect)) | herbicidal effect rating, A: late watergrass (late watergrass): 4 (Herbicidal rate of 70% or more and less than 90%) | herbicidal effect on Chinese sprangletop (D) (Chinese sprangletop; 320 g/ha): 4 (Herbicidal rate of 70% or more and less than 90%) | herbicidal effect on rice flat sedge (E) (rice flat sedge; 320 g/ha): 5 (Herbicidal rate of 90% or more (almost completely withered)) | herbicidal effect on P: chickweed (evaluation grade 0-5) (chickweed): 5 (Herbicidal rate of 90% or more (almost completely withered))
